This is an account of results in patent US9365551B2, “2-(benzyloxy) benzamides as LRRK2 kinase inhibitors” (Glaxo Group Limited, priority 2010, dated 2016).

The target in experiment [1] is T1, 6His-Tev-LRRK2 (1326-2527) (Homo sapiens, UniProt Q5S007).
T1 construct: A LRRK2 cDNA encoding residues 1326-2527 was received from Dundee University; made in house; host or cells: Spodoptera frugiperda (Sf9) insect cells, baculovirus (pFB-HTb)
T1 sequence (Q5S007 1326-2527): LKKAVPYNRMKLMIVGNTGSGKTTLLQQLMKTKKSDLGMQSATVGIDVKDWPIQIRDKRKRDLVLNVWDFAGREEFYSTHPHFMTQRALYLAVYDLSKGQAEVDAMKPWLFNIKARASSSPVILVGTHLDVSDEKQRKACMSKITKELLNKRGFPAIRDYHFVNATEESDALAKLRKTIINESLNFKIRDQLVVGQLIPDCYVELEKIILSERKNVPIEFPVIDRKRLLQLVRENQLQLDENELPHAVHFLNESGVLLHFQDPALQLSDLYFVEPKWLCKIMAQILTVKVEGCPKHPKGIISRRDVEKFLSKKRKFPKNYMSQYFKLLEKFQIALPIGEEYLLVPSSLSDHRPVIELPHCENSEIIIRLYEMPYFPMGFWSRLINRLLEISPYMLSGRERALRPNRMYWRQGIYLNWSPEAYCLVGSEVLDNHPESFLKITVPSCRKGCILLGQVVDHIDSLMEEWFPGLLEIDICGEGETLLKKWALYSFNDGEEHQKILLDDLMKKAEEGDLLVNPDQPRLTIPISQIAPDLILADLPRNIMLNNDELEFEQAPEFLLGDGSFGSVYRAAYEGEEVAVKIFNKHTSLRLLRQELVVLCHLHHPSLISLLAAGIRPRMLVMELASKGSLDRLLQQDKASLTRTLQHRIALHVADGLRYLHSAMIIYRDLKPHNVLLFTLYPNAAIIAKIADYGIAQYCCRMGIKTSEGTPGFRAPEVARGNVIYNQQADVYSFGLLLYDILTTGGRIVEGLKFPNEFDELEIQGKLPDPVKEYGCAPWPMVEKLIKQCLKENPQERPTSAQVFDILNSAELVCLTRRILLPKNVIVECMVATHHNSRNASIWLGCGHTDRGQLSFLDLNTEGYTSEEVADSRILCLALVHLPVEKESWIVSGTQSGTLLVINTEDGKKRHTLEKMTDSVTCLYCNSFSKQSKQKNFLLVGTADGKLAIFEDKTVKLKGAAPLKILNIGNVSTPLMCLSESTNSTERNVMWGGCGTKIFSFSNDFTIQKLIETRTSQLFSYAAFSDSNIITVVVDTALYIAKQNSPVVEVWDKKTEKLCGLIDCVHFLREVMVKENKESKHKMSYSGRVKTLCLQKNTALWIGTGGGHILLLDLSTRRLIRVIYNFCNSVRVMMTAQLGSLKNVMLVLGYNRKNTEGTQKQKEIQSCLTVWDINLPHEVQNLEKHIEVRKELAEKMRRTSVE
Briefly: LRRK2 peptide substrate assay. In kind it is biochemical. The following applies: mean pIC50 of multiple test results. The procedure:
(§1) Compounds of formula (I) may be tested for in vitro kinase activity in accordance with the following assays, using the non natural, in vitro, substrates moesin and the Longer Biotin-LRRKtide. Moesin and a shorter version of the peptide were identified as substrates in Jaleel et al. (2007, Biochem J, 405: 307-317).
LRRK2 Peptide Substrate Assay
a) 100 nl of a 1:4 serial dilution of test compound with a top final assay concentration of 30 μM is added to certain wells in a low volume 384 well black plate. 100 nl of DMSO is used in certain wells as controls.
(§2) b) 3 μl enzyme solution (80 nM purified recombinant 6His-Tev-LRRK2 (1326-2527) in assay buffer: 50 mM Hepes (pH 7.2), 10 mM MgCl2, 150 mM NaCl, 5% glycerol, 0.0025% triton X-100 and 1 mM DTT) is added to certain wells. 3 μl assay buffer is added to certain wells as a 100% inhibition (no enzyme) control. c) After incubation at room temperature for 30 minutes, 3 μl substrate solution (2 μM Biotin-LRRKtide peptide substrate and ATP at Km in assay buffer) is added to each well. Plates are then incubated for a further 1-2 hours at room temperature (incubation time varies depending upon rate and linearity of reaction with differing enzyme batches). d) 6 μl detection solution (50 nM Streptavidin SureLight® APC (PerkinElmer), 4 nM Eu-W1024 labelled anti-rabbit IgG antibody (PerkinElmer), 1:500 dilution (dilution determined on a batch to batch basis) of Phospho-Ezrin (Thr567)/Radixin (Thr564)/Moesin (Thr558) Polyclonal Antibody (New England Biolabs) and 60 mM EDTA in buffer: 40 mM Hepes (pH 7.2), 150 mM NaCl, 0.03% BSA) is added to each well. Plates are then incubated for a further 2 hours at room temperature before reading on a suitable plate reader (Excitation 330 nm, emission 620 nm (Eu) and 665 nm (APC)). Data is analysed using ActivityBase software (IDBS). LRRK2 AlphaScreen Desensitised Protein Substrate Assay a) 100 nl of a 1:4 serial dilution of test compound with a top final assay concentration of 30 μM is added to certain wells in a low volume 384 well black plate. 100 nl of DMSO is used in certain wells as controls. b) 3 μl enzyme solution (80 nM purified recombinant 6His-Tev-LRRK2 (1326-2527) in assay buffer: 50 mM Hepes (pH 7.2), 10 mM MgCl2, 150 mM NaCl, 5% glycerol, 0.0025% triton X-100 and 1 mM DTT) is added to certain wells. 3 μl assay buffer is added to certain wells as a 100% inhibition (no enzyme) control. c) After incubation at room temperature for 30 minutes, 3 μl substrate solution (200 nM GST-PS-Moesin (400-577) and 2 mM ATP in assay buffer) is added to each well. Plates are then incubated for 20 minutes at room temperature. d) 6 μl detection solution (1:250 dilution of AlphaLisa Protein A Acceptor beads (PerkinElmer), 1:64 dilution of AlphaLisa Gluthathione Donor beads (PerkinElmer) and 1:600 dilution (dilution determined on a batch to batch basis) of Phospho-Ezrin (Thr567)/Radixin (Thr564)/Moesin (Thr558) Polyclonal Antibody (New England Biolabs) in a buffer: 50 mM Hepes (pH 7.5), 250 mM NaCl, 60 mM EDTA, 1% PEG and 0.01% Brij 35) is added to each well. Plates are then incubated for a further 2 hours at room temperature in the dark before reading on an EnVision™ plate reader with AlphaScreen HTS turbo option module and AlphaScreen settings. Data is analysed using ActivityBase software (IDBS). Pharmacological Data

Experiment [2] addresses T1, 6His-Tev-LRRK2 (1326-2527). Description: LRRK2 AlphaScreen desensitised protein substrate assay. The class given is biochemical. The following applies: mean pIC50 of multiple test results. The procedure:
as §1, §2
In general terms: Bead proximity is the source of the signal in Alpha formats.

Setting [3] is: stated as threshold, read-out: pIC50 in the LRRK2 peptide substrate assay (bounds) (converted).
The mark [4] stands for this setting: stated as threshold, read-out: pIC50 in the LRRK2 alphascreen desensitised protein substrate assay (bounds) (converted).
Setting [5] is: Biotin-LRRKtide peptide substrate, ATP at Km, read-out: LRRK2 peptide substrate assay (pIC50) (converted).
The mark [6] stands for this setting: GST-PS-Moesin (400-577) substrate, 2 mM ATP, read-out: LRRK2 alphascreen desensitized protein substrate assay (pIC50) (converted).

Molecules are shown by their SMILES.

With `O=C(Nc1ccnnc1)c1cc(C(F)(F)F)c(CN2CCOCC2)cc1OCc1ccccc1` [Example 34, 4-(4-Morpholinylmethyl)-2-[(phenylmethyl)oxy]-N-4-pyridazinyl-5-(trifluoromethyl)benzamide], the IC50 in experiment [1] (setting [3]) is not above 1260 nM; in experiment [2] (setting [4]) it was not above 25100 nM.
For `O=C(Nc1cccnc1)c1cc(C(F)(F)F)c(CN2CCCCC2)cc1OCc1ccccc1` [Example 35, 2-[(Phenylmethyl)oxy]-4-(1-piperidinylmethyl)-N-3-pyridinyl-5-(trifluoromethyl)benzamide], in that order: not above 1260 nM and not above 25100 nM.
For the molecule `O=C(Nc1ccnnc1)c1cc(C(F)(F)F)c(CN2CCCCC2)cc1OCc1ccccc1` [Example 36, 2-[(Phenylmethyl)oxy]-4-(1-piperidinylmethyl)-N-4-pyridazinyl-5-(trifluoromethyl)benzamide], the values for the IC50 in experiment [1] (setting [3]) and in experiment [2] (setting [4]) were not above 1260 nM and not above 25100 nM, respectively.
For the molecule `O=C(Nc1cccnc1)c1cc(C(F)(F)F)c(C(=O)N2CCOCC2)cc1OCc1ccccc1` [Example 37, 4-(4-Morpholinylcarbonyl)-2-[(phenylmethyl)oxy]-N-3-pyridinyl-5-(trifluoromethyl)benzamide], the IC50 is 39.8 nM in experiment [1] (setting [5]), not above 100 nM in experiment [1] (setting [3]), 794 nM in experiment [2] (setting [6]) and not above 25100 nM in experiment [2] (setting [4]).
As to `O=C(Nc1ccnnc1)c1cc(C(F)(F)F)c(C(=O)N2CCOCC2)cc1OCc1ccccc1` [Example 38, 4-(4-Morpholinylcarbonyl)-2-[(phenylmethyl)oxy]-N-4-pyridazinyl-5-(trifluoromethyl)benzamide], the IC50 in experiment [1] (setting [3]) is not above 1260 nM; in experiment [2] (setting [4]), not above 25100 nM.
Take `O=C(Nc1cccnc1)c1cc(C(F)(F)F)c(C(=O)N2CCCCC2)cc1OCc1ccccc1` [Example 39, 2-[(Phenylmethyl)oxy]-4-(1-piperidinylcarbonyl)-N-3-pyridinyl-5-(trifluoromethyl)benzamide]: the IC50 in experiment [1] (setting [5]) was 15.8 nM; in experiment [1] (setting [3]), not above 100 nM; in experiment [2] (setting [6]), 316 nM; in experiment [2] (setting [4]), not above 316 nM.
On to `O=C(Nc1ccnnc1)c1cc(C(F)(F)F)c(C(=O)N2CCCCC2)cc1OCc1ccccc1` [Example 40, 2-[(Phenylmethyl)oxy]-4-(1-piperidinylcarbonyl)-N-4-pyridazinyl-5-(trifluoromethyl)benzamide], for which the IC50 in experiment [1] (setting [3]) was not above 1260 nM; in experiment [2] (setting [4]) it was not above 25100 nM.
As for `O=C(Nc1cccnc1)c1cc(Cl)c(C(=O)N2CCC(F)(F)C2)cc1OCc1ccccc1` [Example 41, 5-Chloro-4-[(3,3-difluoro-1-pyrrolidinyl)carbonyl]-2-[(phenylmethyl)oxy]-N-3-pyridinylbenzamide], the IC50 was not above 100 nM in experiment [1] (setting [3]) and not above 316 nM in experiment [2] (setting [4]).
For `O=C(Nc1ccnnc1)c1cc(Cl)c(C(=O)N2CCC(F)(F)C2)cc1OCc1ccccc1` [Example 42, 5-Chloro-4-[(3,3-difluoro-1-pyrrolidinyl)carbonyl]-2-[(phenylmethyl)oxy]-N-4-pyridazinylbenzamide], the IC50 in experiment [1] (setting [5]) is 50.1 nM; in experiment [1] (setting [3]), not above 100 nM; in experiment [2] (setting [6]) it was 501 nM; in experiment [2] (setting [4]), not above 25100 nM.
In the case of `Cc1nocc1NC(=O)c1cc(Cl)c(C(=O)N2CCC(F)(F)C2)cc1OCc1ccccc1` [Example 43, 5-Chloro-4-[(3,3-difluoro-1-pyrrolidinyl)carbonyl]-N-(3-methyl-4-isoxazolyl)-2-[(phenylmethyl)oxy]benzamide], the IC50 was not above 100 nM in experiment [1] (setting [3]) and not above 25100 nM in experiment [2] (setting [4]).
Consider `O=C(Nc1cccnc1)c1cc(Cl)c(C(=O)N2CCOCC2)cc1OCc1ccccc1` [Example 44, 5-Chloro-4-(4-morpholinylcarbonyl)-2-[(phenylmethyl)oxy]-N-3-pyridinylbenzamide], for which the IC50 in experiment [1] (setting [5]) is 31.6 nM; in experiment [1] (setting [3]), not above 100 nM; in experiment [2] (setting [6]) it was 158 nM; in experiment [2] (setting [4]), not above 316 nM.
In the case of `O=C(Nc1cccc(Cl)c1)c1cc(Cl)c(C(=O)N2CCOCC2)cc1OCc1ccccc1` [Example 45, 5-Chloro-N-(3-chlorophenyl)-4-(4-morpholinylcarbonyl)-2-[(phenylmethyl)oxy]benzamide], the IC50 is not above 10 nM in experiment [1] (setting [3]) and not above 316 nM in experiment [2] (setting [4]).
Take `O=C(Nc1ccnnc1)c1cc(Cl)c(C(=O)N2CCOCC2)cc1OCc1ccccc1` [Example 46, 5-Chloro-4-(4-morpholinylcarbonyl)-2-[(phenylmethyl)oxy]-N-4-pyridazinylbenzamide]: the IC50 in experiment [1] (setting [3]) is not above 100 nM; in experiment [2] (setting [4]), not above 25100 nM.
Consider `Cn1cc(-c2cc(C(=O)Nc3cccc(F)c3)c(OCc3ccc(F)cc3)cc2C(=O)N2CCOCC2)cn1` [Example 47, 2-((4-fluorobenzyl)oxy)-N-(3-fluorophenyl)-5-(1-methyl-1H-pyrazol-4-yl)-4-(morpholine-4-carbonyl)benzamide], for which the IC50 in experiment [1] (setting [5]) is 10 nM; in experiment [1] (setting [3]) it was not above 10 nM; in experiment [2] (setting [6]) it was 126 nM; in experiment [2] (setting [4]), not above 316 nM.
